Patent publication US8637310B2, “Use of a rock inhibitor to sustain primary human keratinocytes in a proliferative state” (The United States of America, as represented by the …, priority 2008, dated 2014)

Key:
[1] = tested on: human embryonic stem cells; settings: cited from earlier work
HPV31 = experiment: HPV DNA replication assay (Southern blot) in transfected primary keratinocytes, HPV31; format: cell-based, human papillomavirus; settings: 10 μM Y-27632; two and five days post-electroporation; FIG. 5
Method: Cloned viral genomes were cleaved with restriction enzymes to separate viral and vector sequences. The genomes were religated at a concentration of 5 μg/ml to favor intramolecular circularization. Prior to electroporation, J2 feeder cells were removed from the keratinocytes by versene treatment and the HFKs were collected by trypsinization. HFKs (1×10^6) were electroporated with 2 μg of re-circularized viral genomic DNA using the Amaxa Nucleofector II electroporator and the Human Keratinocyte Nucleofector Kit. The Amaxa program optimized for cell survival was used according to the manufacturer's specifications. Cells were removed from the cuvettes immediately following electroporation, and seeded onto 10 cm plates containing irradiated feeder cells and F-medium, in the presence or absence of 10 μM Y-27632, as indicated. At various times post-transfection, low molecular weight DNA was isolated by a modified Hirt extraction procedure (Ustav et al., EMBO J. 10:449-457, 1991). For Southern blot analysis, the isolated DNA was linearized with EcoRI or BamHI, depending on cloning site for each viral genome, and DpnI, to digest any unreplicated input DNA. DNA fragments were separated by agarose gel electrophoresis followed by Southern blot hybridization. […]

HPV18 = experiment: HPV DNA replication assay (Southern blot) in transfected primary keratinocytes, HPV18; format: cell-based, human papillomavirus
Method: Cloned viral genomes were cleaved with restriction enzymes to separate viral and vector sequences. The genomes were religated at a concentration of 5 μg/ml to favor intramolecular circularization. Prior to electroporation, J2 feeder cells were removed from the keratinocytes by versene treatment and the HFKs were collected by trypsinization. HFKs (1×10^6) were electroporated with 2 μg of re-circularized viral genomic DNA using the Amaxa Nucleofector II electroporator and the Human Keratinocyte Nucleofector Kit. The Amaxa program optimized for cell survival was used according to the manufacturer's specifications. Cells were removed from the cuvettes immediately following electroporation, and seeded onto 10 cm plates containing irradiated feeder cells and F-medium, in the presence or absence of 10 μM Y-27632, as indicated. At various times post-transfection, low molecular weight DNA was isolated by a modified Hirt extraction procedure (Ustav et al., EMBO J. 10:449-457, 1991). For Southern blot analysis, the isolated DNA was linearized with EcoRI or BamHI, depending on cloning site for each viral genome, and DpnI, to digest any unreplicated input DNA. DNA fragments were separated by agarose gel electrophoresis followed by Southern blot hybridization. A ^32P-labeled probe was synthesized from the isolated viral genomic DNA (purified from the vector sequence) by the random prime method and used in Southern hybridizations.

p16^INK4a = experiment: Immunodetection of p16INK4a; format: cell-based, human
Method: Proteins were extracted in 2% sodium dodecyl sulfate (SDS), 50 mM Tris-HCl (pH 6.8), 10% glycerol supplemented with inhibitors Complete and PhosphoSTOP (Roche, Indianapolis, Ind.). Protein samples were resolved on NuPage gels, electrotransferred to Immobilon-P membrane (Millipore, Billerica, Mass.), and probed with the relevant antibodies before detection by chemiluminescence. Monoclonal antibody against p53 (DO-1) was obtained from Santa Cruz Biotechnology (Santa Cruz, Calif.). Monoclonal antibody against α-tubulin (B-5-1-2) was obtained from Sigma-Aldrich. Polyclonal antibodies against Myc (N-262), p21 (C-19), and p16 (C-20) were obtained from Santa Cruz Biotechnology.

W12 cells (20863 clone) = experiment: Growth of CIN1-derived cell line W12; format: cell-based, human; settings: 10 μM Y-27632; 44 days; FIG. 7
Method: The 9E and […] (20863 clone) cell lines were cultured in F-media on irradiated J2 feeder cells. For the Y-27632 experiments they were cultured in F-medium with or without 10 μM Y-27632 and continually passed for the times indicated.

foreskin keratinocytes = experiment: Foreskin keratinocytes grown without fibroblast feeder cells, on plastic, serum-free medium; format: cell-based, human; settings: no fibroblast feeder cells
Method: Culturing keratinocytes in the presence of fibroblast feeder cells increases the lifespan of keratinocytes (Fu et al., Cancer Res. 63: 7815-7824, 2003; Rheinwald et al., Mol. Cell Biol. 22: 5157-5172, 2002) and might contribute to the observed immortalization by Y-27632. Therefore, the effect of Y-27632 on foreskin keratinocytes grown in the absence of fibroblast feeder cells, cultured on plastic and in serum-free medium was analyzed. […] Therefore, co-culture with feeder fibroblasts is required in concert with ROCK inhibition to immortalize keratinocytes.

telomeres = experiment: Telomere length assay (real-time PCR); format: cell-based, human
Method: Genomic DNA was extracted from cells and the average telomere length was assessed by a modified method of the real-time PCR-based telomere assay described previously (Cawthon et al., Nucleic Acids Res. 30: e47, 2002; Cawthon, Nucleic Acids Res. 37: e21, 2009). Briefly, the telomere repeat copy number to single gene copy number (T/S) ratio was determined using a Bio-Rad IQ5 thermocycler. Genomic DNA (5 ng) was subjected to PCR reactions and detected with SYBR Green Super Mix (Bio-Rad). The primers for telomere length and HBG1 (a single copy gene) were as follows. Reaction conditions were: 1 cycle, 95° C., 5 minutes; 41 cycles, 95° C., 15 seconds,; 1 cycle, 60° C. for 45 seconds. All reactions were carried out in triplicate and compared to a standard curve of 0, 0.2, 1, 5, 25 and 125 ng genomic DNA (telomere length 10.4 kb) from Roche Telo-kit. The T/S ratio (dCt) for each sample was calculated by normalizing the average HBG Ct value to the average telomere Ct value.

p53 pathway = experiment: Growth arrest assay (DNA damage response to 0.5 nM actinomycin D); format: cell-based, human; settings: 0.5 nM actinomycin D 24 hours; Y-27632-treated HFKs at P122; FIG. 12B
Method: Keratinocytes (1-2×10^6) were seeded on a 10 cm plate. Forty-eight hours later they were treated with 0.5 nM actinomycin D for 24 hours. Protein extracts were prepared, as described above, and analyzed for p53 and p21 protein levels.

[2] = tested on: human cervical keratinocytes (HCK); experiment: Long-term culture / immortalization of primary human cervical keratinocytes on feeder cells; format: cell-based; settings: 10 μM Y-27632; FIG. 9
Method: The HPV18 cell line was established by introducing the HPV18 genome into primary HFKs using the Amaxa human keratinocyte nucleofection system. Primary human cervical keratinocytes (HCKs), human vaginal keratinocytes (HVKs), the HPV18 cell lines and the HPV31 positive cell line (CIN-612 9E) were grown in the presence or absence of 10 μM Y-27632 (Alexis Biochemicals), as indicated. Cells were subcultured by removing the fibroblast feeder cells with versene and keratinocytes were collected by trypsinization. At each pass, 2×10^5 cells were plated on a 10 cm plate of J2 feeder cells. Population doubling was calculated as: PD=3.32(log(# cells harvested/# cells seeded)). Immunodetection

SMILES: CC(N)[C@H]1CC[C@H](C(=O)Nc2ccncc2)CC1 (single isomer, unassigned; (+)) [Y-27632, (+)-trans-N-(4-Pyridyl)-4-(1-aminoethyl)-cyclohexanecarboxamide]
- survival rate of human embryonic stem cells following cryopreservation ([1]; Li et al. 2008): enhances the survival rate
- survival of embryonic stem cells ([1]; Watanabe et al. 2007): greatly increase the survival of embryonic stem cells
- efficiency of HPV replication (HPV31): greatly increased the efficiency of HPV replication up to five days
- efficiency of HPV replication (HPV18; 10 μM Y-27632, two and five days post-electroporation, FIG. 5): greatly increased the efficiency of HPV replication up to five days
- HPV18 replication, long-term assay (HPV18; after day 10, FIG. 6): greater levels of replication in the absence of Y-27632
- HPV18 replication, long-term assay (HPV18; at early times, FIGS. 5 and 6): greater in the presence of Y-27632
- p16^INK4a levels (p16^INK4a; HPV immortalized cells): no effect
- p16^INK4a mRNA and protein expression (p16^INK4a; after long-term culture with Y-27632, FIG. 12A): still observed, albeit at a low level
- growth rate (W12 cells (20863 clone)): no differences in growth rate were observed
- proliferation in the absence of feeder cells (foreskin keratinocytes): somewhat increased proliferation
- bypass of senescence in the absence of feeder cells (foreskin keratinocytes; repeated experiments): did not bypass senescence
- relative length of telomeres (telomeres; passage 50 to 120): became stable
- relative length of telomeres (telomeres; with passage in Y-27632, FIG. 11B): became progressively shorter with passage
- DNA damage response (p53 and p21 upregulation) (p53 pathway): normal DNA damage response
- bypass of senescence [2]: efficiently bypassed senescence with no observed decline in growth rate
- cellular proliferation [2]: dramatic increase in cellular proliferation
